Drawing on patent US5677282A (Proscript, Inc., priority 1995, dated 1997), this text covers Ki for 19 molecules.

Each structure is given as a SMILES string. Where a SMILES comes first, the peptide text is derived from it. [ ]: non-standard residue; d: D form. The star is where a group is joined. Phg = N[CH](C(=O)O)c1ccccc1; Cbz = O=C(OCc1ccccc1)*; X1 = S=c1[nH]nc(N*)s1; Bn = c1ccc(C*)cc1

stromelysin, sequence (P08254 100-477): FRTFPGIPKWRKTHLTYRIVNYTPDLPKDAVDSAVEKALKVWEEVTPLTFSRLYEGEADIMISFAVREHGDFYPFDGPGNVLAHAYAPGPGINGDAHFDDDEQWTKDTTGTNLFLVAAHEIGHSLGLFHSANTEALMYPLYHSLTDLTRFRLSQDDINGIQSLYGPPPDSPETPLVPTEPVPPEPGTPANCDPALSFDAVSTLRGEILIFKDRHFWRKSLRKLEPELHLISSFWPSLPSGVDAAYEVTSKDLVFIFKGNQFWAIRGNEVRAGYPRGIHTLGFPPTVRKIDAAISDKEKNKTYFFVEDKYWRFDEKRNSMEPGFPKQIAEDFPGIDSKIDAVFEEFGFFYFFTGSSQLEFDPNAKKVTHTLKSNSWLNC
92 kD gelatinase, sequence (P14780 107-707): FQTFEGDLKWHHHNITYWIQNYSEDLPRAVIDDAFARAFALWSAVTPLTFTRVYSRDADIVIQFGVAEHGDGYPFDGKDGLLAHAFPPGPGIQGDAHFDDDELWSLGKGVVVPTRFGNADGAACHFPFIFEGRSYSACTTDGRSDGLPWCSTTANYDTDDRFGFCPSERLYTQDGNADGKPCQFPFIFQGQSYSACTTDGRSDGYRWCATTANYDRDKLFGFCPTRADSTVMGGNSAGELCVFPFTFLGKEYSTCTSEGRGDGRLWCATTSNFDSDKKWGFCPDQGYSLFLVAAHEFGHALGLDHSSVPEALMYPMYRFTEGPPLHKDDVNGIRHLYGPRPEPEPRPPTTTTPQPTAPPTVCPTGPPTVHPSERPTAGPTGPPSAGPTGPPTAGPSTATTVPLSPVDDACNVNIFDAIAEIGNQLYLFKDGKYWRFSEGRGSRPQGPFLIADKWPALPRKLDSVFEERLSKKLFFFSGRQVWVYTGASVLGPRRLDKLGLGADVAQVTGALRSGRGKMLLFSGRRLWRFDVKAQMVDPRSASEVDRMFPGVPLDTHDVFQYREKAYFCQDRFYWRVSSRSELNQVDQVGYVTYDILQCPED

For the first assay, the target named is T1, 72 kD gelatinase (Homo sapiens, UniProt P08253).
T1 sequence (P08253 110-660): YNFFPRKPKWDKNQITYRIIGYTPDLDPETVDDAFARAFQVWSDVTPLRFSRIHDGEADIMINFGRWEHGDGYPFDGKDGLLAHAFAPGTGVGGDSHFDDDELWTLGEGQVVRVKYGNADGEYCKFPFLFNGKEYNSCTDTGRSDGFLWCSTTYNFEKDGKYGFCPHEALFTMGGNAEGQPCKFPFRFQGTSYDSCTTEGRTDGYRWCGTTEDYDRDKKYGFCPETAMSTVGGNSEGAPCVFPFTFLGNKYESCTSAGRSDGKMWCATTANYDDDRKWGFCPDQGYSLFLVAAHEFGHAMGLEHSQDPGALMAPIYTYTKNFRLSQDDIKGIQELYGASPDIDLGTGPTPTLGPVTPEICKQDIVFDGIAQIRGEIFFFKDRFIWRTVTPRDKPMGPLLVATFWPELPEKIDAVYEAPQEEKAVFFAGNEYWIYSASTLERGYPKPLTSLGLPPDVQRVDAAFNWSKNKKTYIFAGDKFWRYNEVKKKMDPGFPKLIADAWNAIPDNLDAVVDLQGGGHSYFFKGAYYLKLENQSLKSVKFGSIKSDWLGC
Description: Assay of 72 KD gelatinase inhibition activity. The assay is classed as biochemical. Particulars: 72KD gelatinase 180 pM, H-150 buffer pH 7.4; read-out: Ki(app). The procedure:
H-150 buffer, pH 7.4, was prepared by CaCl2 H2O (1.47 grams), NaCl (8.77 grams) and N-[2 -hydroxyethyl]piperazine-N'-[2-ethanesulfonic acid](23.83 grams) to distilled and deionized water and then bring the final volume of the solution to 1 liter. An reaction mixture having a final volume of 250 μL was prepared with H-150 buffer, 40 μgrams of Pro-72KD gelatinase (Strongin, et al., J. Biol. Chem. 268:14033 (1993); Goldberg, et al., J. Biol. Chem., 267:4583 (1992); Kleiner, et al., Biochemistry 32:1583 (1993)) and p-aminophenyl mercuric acetate (Sigma Chemical Co., St. Louis, Mo.) (1 mM). The reaction mixture was then incubated for 3 hours at 25° C.
The reaction mixture was applied to a NAP-5 column (G-25 SEPHADEX™, Pharmacia). Fractions containing […] were identified using 12% SDS polyacrylamide gel electrphoresis and concentrated to about 100-200 μliters by centrifigation (5000 g, 15 minutes).
A solution containing H-150 buffer (2.0 mL), 72KD gelatinase (180 pM) and ethylphenolpoly(ethylene-glycolether)n (Boerhringer Mannheim) (1.3 μM) was prepared in a stirred cuvette. Coumarin peptide substrate (2 μL of a 1 mM solution in dimethyl sulfoxide) was added to the reaction mixture. The rate of hydrolysis was determined for about 100-200 seconds by measuring the fluorescence of the reaction at ex328 nanometers and […] using a Hitachi F-2000 Fluorescence Spectrophotometer.
(§1) 2 μL of a 10 mM inhibitor stock solution (in dimethyl sulfoxide) is added and the reduction in the rate of hydrolysis is determined. Additional 2 μL aliquots of the stock inhibitor solution is added until a 30% to 70% inhibition is observed. Ki is calculated on the assumption of simple competitive inhibition and that the substrate concentration is much less than Km.
Turning to `CSCC[C@H](NC(=O)[C@H](Cc1ccccc1)NC(=O)OCc1ccccc1)C(=O)N[C@@H](Cc1ccc(OCc2ccccc2)cc1)C(=O)N[C@H](C(=O)Nc1n[nH]c(=S)s1)c1ccccc1`, the Ki came out at 0.2 nM.
Regarding `O=C(CNC(=O)OCc1ccccc1)NC(Cc1ccc(O)cc1)C(=O)NC(Cc1ccc(OCc2ccccc2)cc1)C(=O)NC(C(=O)Nc1n[nH]c(=S)s1)c1ccccc1` (stereo not drawn) [5-(N-benzyloxycarbonyl-glycyl-tyrosyl-(O-benzyl)tyrosyl)-phenylglycylamino)-1,3,4-thiadiazole-2-thione] (Cbz-GYY(Bn)[Phg]-X1; configuration not given here), the Ki was determined as 0.073 nM.
On to `O=C(CNC(=O)[C@H](Cc1ccc(OCc2ccccc2)cc1)NC(=O)OCc1ccccc1)Nc1n[nH]c(=S)s1` [5-(N-benzyloxycarbonyl-(O-Benzyl)tyrosyl-glycylamino)-1,3,4-thiadiazole-2-thione], for which the Ki is 0.38 nM.

For a further assay, the target named is stromelysin (Homo sapiens, UniProt P08254). Description: Assay of stromelysin inhibition activity (fluorogenic coumarin peptide substrate). The assay is classed as biochemical. Particulars: trypsin-activated stromelysin 2 nM, H-150 buffer pH 7.4, room temperature; read-out: Ki(app). The procedure:
Stromelysin was first activated with trypsin. This was done by preparing a reaction mixture in H-150 (H-150 consists of 10 mM CaCl2, 150 mM NaCl and 100 mM HEPES at pH 7.4) containing a final concentration of 25 μg/mL trypsin and 2.2 μM of stromelysin (Marcy et al., Biochemistry,30:6476 (1991); Koklitis et al., Biochem. J., 376:217 (1991). The reaction was incubated for 30 minutes at 37° C. and then quenched by adding trypsin inhibitor agarose to the reaction mixture at a 20 fold excess with respect to trypsin.
The reaction mixture was centrifuged at 14,000 rpm (16,000 ×g) for 30 minutes using an Eppendorf Centrifuge 5415C. The supernant, which contains activated stromelysin, was concentrated with a Centricon 10 (5000 g, 1 hour). A sample was analyzed by Bradford total protein assay and 12% SDS polyacrylamide gel electrophoresis.
All steps of the stromelysin inhibition assay were performed at room temperature. Assay solutions were prepared for each inhibitor tested. Activated stromelysin was added to a stirred covelte to a final concentration of 2 nM in 2 mL of H-150 buffer. 4 μL 5 mM coumarin peptide substrate was dissolved in DMSO and the initial rate of hydrolysis was measured for 100-200 seconds.
Substrate hydrolysis was assessed by fluorescence using a slit width of 10:10, excitation at 328 nm and emission at 393 nm. Ki was calculated based on the assumption of simple competitive inhibition and a substrate concentration much less than Km. 2 μL of 10 mM inhibitor in DMSO was added and the reduction in hydrolysis rate measured. The addition of 2 μL of inhibitor was continued until a 30-70% inhibition was observed.
Consider `C[C@H](NC(=O)[C@H](Cc1ccccc1)NC(=O)OCc1ccccc1)C(=O)Nc1n[nH]c(=S)s1` [5-(N-benzyloxycarbonyl-phenylalanyl-alanylamino)-1,3,4-thiadiazole-2-thione], for which the Ki was 1400 nM.
On to `O=C(CNC(=O)OCc1ccccc1)NC(Cc1ccc(O)cc1)C(=O)NC(Cc1ccc(OCc2ccccc2)cc1)C(=O)NC(C(=O)Nc1n[nH]c(=S)s1)c1ccccc1` (stereo not drawn) [5-(N-benzyloxycarbonyl-glycyl-tyrosyl-(O-benzyl)tyrosyl)-phenylglycylamino)-1,3,4-thiadiazole-2-thione] (Cbz-GYY(Bn)[Phg]-X1; configuration not given here), for which the Ki was found to be 110 nM.
For the molecule `CC(=O)N[C@@H](CC(C)C)C(=O)N[C@@H](CC(C)C)C(=O)Nc1n[nH]c(=S)s1` [5-(N-acetyl-leucyl-leucylamino)-1,3,4-thiadiazole-2-thione], the Ki was 6440 nM.
Still for that read-out and setting: to `CC(C)[C@H](NC(=O)[C@H](Cc1ccccc1)NC(=O)CCc1ccccc1)C(=O)Nc1n[nH]c(=S)s1` [5-(N-hydrocinamoyl-phenylalanyl-valylamino-1,3,4-thiadiazole-2-thione] belongs 267 nM.
Take `CC(C)(C)[C@H](NC(=O)[C@H](Cc1ccc(OCc2ccccc2)cc1)NC(=O)OCc1ccccc1)C(=O)Nc1n[nH]c(=S)s1`: the Ki is 89 nM.
Turning to `CC(C)[C@H](NC(=O)[C@@H](NC(=O)OCc1ccccc1)C1CCCCC1)C(=O)Nc1n[nH]c(=S)s1`, the Ki stood at 180 nM.
Turning to `CC(C)C[C@H](NC(=O)OCC1c2ccccc2-c2ccccc21)C(=O)Nc1n[nH]c(=S)s1` [5-(N-(9-fluorenylmethoxycarbonyl)leucylamino)-1,3,4-thiadiazole-2-thione], the Ki was 184 nM.
For `O=C(CNC(=O)[C@H](Cc1ccccc1)NC(=O)OCc1ccccc1)Nc1n[nH]c(=S)s1` [5-(N-benzyloxycarbonyl-phenylalanyl-glycylamino)-1,3,4-thiadiazole-2-thione], the Ki amounted to 3950 nM.
As to `CC(C)[C@H](NC(=O)[C@H](COCc1ccccc1)NC(=O)OCc1ccccc1)C(=O)Nc1n[nH]c(=S)s1` [5-(N-benzyloxycarbonyl-(O-benzyl)seryl-valylamino)-1,3,4-thiadiazole-2-thione], the Ki was found to be 236 nM.
Still for that read-out and setting: the result for `CCCC(NC(=O)OCC1c2ccccc2-c2ccccc21)C(=O)Nc1n[nH]c(=S)s1` (stereo not drawn) [5-(N-(9-fluorenylmethoxycarbonyl-norvalyl)-1,3,4-thiadiazole-2-thione] reads 509 nM; that for `O=C(N[C@@H](Cc1c[nH]c2ccccc12)C(=O)Nc1n[nH]c(=S)s1)OCC1c2ccccc2-c2ccccc21` [5-(N-(9-fluorenylmethoxycarbonyl)tryptonylamino)-1,3,4-thiadiazole-2-thione], 341 nM; that for `O=C(N[C@@H](Cc1c[nH]c2ccccc12)C(=O)Nc1n[nH]c(=S)s1)OCc1ccccc1` [5-(N-benzyloxycarbonyl-tryptonylamino)-1,3,4-thiadiazole-2-thione], 3370 nM.
On the same count and under the same terms, to `CC(C)[C@H](NC(=O)[C@H](Cc1cc(I)c(O)c(I)c1)NC(=O)OCc1ccccc1)C(=O)Nc1n[nH]c(=S)s1` belongs 97 nM; to `CC(C)C[C@H](NC(=O)OCc1ccccc1)C(=O)N[C@H](C(=O)Nc1n[nH]c(=S)s1)C(C)C` [5-(N-benzyloxycarbonyl-leucyl-valylamino)-1,3,4-thiadiazole-2-thione], 660 nM.

The target in a further assay is 92 kD gelatinase (Homo sapiens, UniProt P14780). Description: Assay of 92 KD gelatinase inhibition activity. The assay is classed as biochemical. Conditions: 92KD gelatinase 25 pM, H-150 buffer pH 7.4; read-out: Ki(app). The procedure:
H-150 buffer, pH 7.4, was prepared by CaCl2 H2 O (1.47 grams), NaCl (8.77 grams) and N-[2-hydroxyethyl]piperazine-N'-[2-ethanesulfonic acid](23.83 grams) to distilled and deionized water and then bring the final volume of the solution to 1 liter. A reaction mixture having a final volume of 500 μL was prepared with H-150 buffer, 200 μgrams of Pro-92KD gelatinase (Strongin et al., J. Biol. Chem., 268:14033 (1993); Goldberg, et al., J. Biol. Chem., 267:4583 (1992); Okada et al., J. Biol. Chem. 267:21712 (1992)), p-aminophenyl mercuric acetate (Sigma Chemical Co., St. Louis, Mo.) (1 mM) and Brij (dodexylpoly(oxyethyleneglycolether))(0,008% w/v). The reaction mixture wsa then incubated for 24 hours at 37° C.
The reaction mixture was applied to a NAP-5 column (G-25 SEPHADEX™, Pharmacia). Fractions containing 72KD gelatinase were identified using 12% polyacrylamide gel electrophoresis and concentrated to about 100-200 μliters by centrifigation (5000 g, 1 hour).
A solution containing H-150 buffer (2.0 mL), 92KD gelatinase (25 pM) and ethylphenolpoly(ethylene-glycolether)n (Boerhringer Mannheim) (4.0 μM) was prepared in a stirred cuvette. Coumarin peptide substrate (4 μL of a 5 mM solution in dimethyl sulfoxide) was added to the reaction mixture. The rate of hydrolysis was determined for about 100-200 seconds by measuring the fluorescence of the reaction at ex328 nanometers and […] using a Hitachi F-2000 Fluorescence Spectrophotometer.
as §1
Regarding `C[C@H](NC(=O)[C@H](Cc1ccccc1)NC(=O)OCc1ccccc1)C(=O)Nc1n[nH]c(=S)s1` [5-(N-benzyloxycarbonyl-phenylalanyl-alanylamino)-1,3,4-thiadiazole-2-thione], the Ki amounted to 3.6 nM.
With `O=C(N[C@@H](Cc1ccc(OCc2ccccc2)cc1)C(=O)N[C@@H](Cc1ccccc1)C(=O)Nc1n[nH]c(=S)s1)OCc1ccccc1`, the Ki is 0.15 nM.
On the same count and under the same terms, the result for `O=C(N[C@@H](Cc1ccccc1)C(=O)Nc1n[nH]c(=S)s1)OCC1c2ccccc2-c2ccccc21` [5-(N-(9-fluorenylmethoxycarbonyl)-phenylalanylamino)-1,3,4-thiadiazole-2-thione] reads 0.23 nM; that for `O=C(N[C@H](C(=O)Nc1n[nH]c(=S)s1)c1ccccc1)[C@H](Cc1ccc(OCc2ccccc2)cc1)NC(=O)[C@@H]1CCCN1C(=O)OCc1ccccc1`, 0.76 nM.
